Reference: patent US11382985B2, “Anti-tumour immune responses to modified self-epitopes” (Scancell Limited, priority 2015, dated 2022)
Square brackets hold non-standard residues; d marks the D form. Ends that are not written are not given here. Cit = NC(=O)NCCC[C@H](N)C(=O)O

System: PBMCs
Experiment: PBMC culture and IFNγ Elispot
Assay type: cell-based, human
Details: donors 1 and 4, PBMCs cultured 13 days; label = restimulating peptide
Protocol: PBMC were isolated from freshly drawn heparinised blood by Ficol-Hypaque (Sigma) gradient centrifugation. PBMC (1.5×10^6 cells/well) were stimulated with single peptides (final concentration 10 μg/ml) in RPMI containing 5% pooled autologous human serum, 2 mM glutamine, 20 mM HEPES, Penicillin-streptomycin (1%), 10 ng/ml recombinant human IL-15 and 5 ng/ml recombinant human IL-7 in a final volume of 2 ml. Recombinant human IL-2 was added on day 3 at 20 IU/ml. On day 13 cells were washed and added to human IFN elispot assay. Elispot assays were performed using human IFNγ capture and detection reagents according to the manufacturer's instructions (Mabtech, Sweden). In brief, anti-IFNγ antibody was coated onto wells of 96-well Immobilin-P plate. Synthetic peptides (at 10 μg/ml) and 1×10^5 per well PBMCs were added to the wells of the plate in quadruplicate and plates incubated for 20 hrs at 37° C. After incubation, captured IFNγ was detected by biotinylated anti-IFN antibody and developed with a streptavidin alkaline phosphatase and chromogenic substrate. Spots were analysed and counted using an automated plate reader (Cellular Technologies Ltd).

With “VIGMDVAASEFF-CIT-SGKYDLD (VIGMDVAASEFF[Cit]SGKYDLD; listed as Homo sapiens) [Enolase 241cit]” the “IFNγ response on restimulation” value was “show responses”.
